Among the data in patent US8519149B2, “Tricyclic compounds as mPGES-1 inhibitors” (Glenmark Pharmaceuticals S.A., priority 2010, dated 2013) are inhibition and IC50 values, retold here.

This experiment deals with T1, Recombinant human mPGES-1 (Homo sapiens, UniProt O14684).
T1 sequence (O14684 1-152): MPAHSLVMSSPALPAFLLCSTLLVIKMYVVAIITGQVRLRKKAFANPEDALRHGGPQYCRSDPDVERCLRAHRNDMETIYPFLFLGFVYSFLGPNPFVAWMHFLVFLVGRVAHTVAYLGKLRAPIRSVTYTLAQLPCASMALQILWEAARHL
The experiment is described as follows: In-vitro mPGES-1 enzyme inhibition assay (PGE2 formation from PGH2, HTRF detection). The class given is biochemical. To be noted: for inhibition at 1 µM: 1 μM test compound, read-out: Percentage inhibition at 1 μM; for inhibition at 1 µM / inhibition at 10 µM: recombinant human mPGES-1 microsomal fraction; for inhibition at 10 µM: 10 μM test compound, read-out: Percentage inhibition at 10 μM; for IC50: class symbols, selected examples. From the text: In-Vitro Protocol for Screening of mPGES-1 Inhibitors: mPGES-1 (microsomal prostaglandin E synthase-1) is a microsomal enzyme that converts endoperoxide substrate PGH2 (prostaglandin H2) to product PGE2 (prostaglandin E2) by isomerization in the presence of reduced glutathione (GSH). mPGES-1 inhibitors were screened by assessing their ability to inhibit formation of PGE2 from PGH2 in presence of mPGES-1 using anti-PGE2 antibody based detection method. […] Assay was set up using crude microsomal fractions at protein concentration of 40-60 μg/mL. […] Final concentration of DMSO in reaction was 0.5% (v/v). Negative controls comprised of all assay reagents except the enzyme. Positive controls comprised of enzyme reaction in the absence of any inhibitor. […] Reaction was stopped by addition of Stannous chloride (11 mg/ml) and PGE2 levels were measured ([…] et al. […] Inhibition of mPGES-1 enzyme activity was measured using percent of reaction occurring in the positive control. Concentration response curves were plotted using percent inhibition of maximum enzyme reaction. IC50 value was calculated from concentration response curve by nonlinear regression analysis using GraphPad PRISM software.
In general terms: TR-FRET usually uses a lanthanide donor and a delayed reading to cut background.

The term inhibition denotes the relative decrease from the control value, in per cent. One may read the IC50 as the point on the concentration scale where inhibition reaches its midpoint. For `CC1(C)Cc2c(c(C(=O)NCc3ccc(F)cc3)cc3nc(Nc4c(F)cccc4Cl)[nH]c23)O1` [Example-39, 2-[(2-Chloro-6-fluorophenyl)amino]-N-(4-fluorobenzyl)-7,7-dimethyl-7,8-dihydro-1H-furo[3,2-e]benzimidazole-5-carboxamide], the inhibition at 1 µM was 92.5%, the inhibition at 10 µM came out at 70.7% and the IC50 was less than 50 nM.
On to `Cc1cnc(NC(=O)c2cc3nc(Nc4c(Cl)cccc4Cl)[nH]c3c3c2OC(C)(C)C3)s1` [Example-40, 2-[(2,6-Dichlorophenyl)amino]-7,7-dimethyl-N-(5-methyl-1,3-thiazol-2-yl)-7,8-dihydro-1H-furo[3,2-e]benzimidazole-5-carboxamide], for which the inhibition at 1 µM was found to be 88.7%, the inhibition at 10 µM came to 94.6% and the IC50 is less than 50 nM.
For the compound `CCC(C)(C)NC(=O)c1cc2nc(Nc3c(Cl)cccc3Cl)[nH]c2c2c1OC(C)(C)C2` [Example-41, 2-[(2,6-Dichlorophenyl)amino]-7,7-dimethyl-N-(2-methylbutan-2-yl)-7,8-dihydro-1H-furo[3,2-e]benzimidazole-5-carboxamide], the inhibition at 1 µM came out at 99.2%, the inhibition at 10 µM amounted to 95.7% and the IC50 was less than 50 nM.
On to `CC1(C)Cc2c(c(C(=O)NCC3CCCCC3)cc3nc(Nc4c(F)cccc4Cl)[nH]c23)O1` [Example-42, 2-[(2-Chloro-6-fluorophenyl)amino]-N-(cyclohexylmethyl)-7,7-dimethyl-7,8-dihydro-1H-furo[3,2-e]benzimidazole-5-carboxamide], for which the inhibition at 1 µM stood at 83.2%, the inhibition at 10 µM amounted to 89.9% and the IC50 is less than 50 nM.
`CC(O)CNC(=O)c1cc2nc(Nc3c(Cl)cccc3Cl)[nH]c2c2c1OC(C)(C)C2` (centres unmarked) [Example-43, 2-[(2,6-Dichlorophenyl)amino]-N-(2-hydroxypropyl)-7,7-dimethyl-7,8-dihydro-1H-furo[3,2-e]benzimidazole-5-carboxamide]: the inhibition at 1 µM worked out at 43.8%, the inhibition at 10 µM amounted to 72.3% and the IC50 is less than 50 nM.
For `CC(C)CCNC(=O)c1cc2nc(Nc3c(Cl)cccc3Cl)[nH]c2c2c1OC(C)(C)C2` [Example-46, 2-[(2,6-Dichlorophenyl)amino]-7,7-dimethyl-N-(3-methylbutyl)-7,8-dihydro-1H-furo[3,2-e]benzimidazole-5-carboxamide] the same measures were 100%, 100% and less than 50 nM.
For `Cc1cc2c(o1)c(C(=O)NCc1ccc(F)cc1)cc1nc(Nc3c(F)cccc3Cl)[nH]c12` [Example-48, 2-[(2-Chloro-6-fluorophenyl)amino]-N-(4-fluorobenzyl)-7-methyl-1H-furo[3,2-e]benzimidazole-5-carboxamide], the inhibition at 1 µM was found to be 70.8% and the inhibition at 10 µM was 96.7%.
For `Cc1cc2c(o1)c(C(=O)NCC1CCCCC1)cc1nc(Nc3c(F)cccc3Cl)[nH]c12` [Example-49, 2-[(2-Chloro-6-fluorophenyl)amino]-N-(cyclohexylmethyl)-7-methyl-1H-furo[3,2-e]benzimidazole-5-carboxamide] the same measures were 91.6% and 96.1%.
In the case of `Cc1cc2c(o1)c(C(=O)NCCC(C)C)cc1nc(Nc3c(Cl)cncc3Cl)[nH]c12` [Example-50, 2-[(3,5-Dichloropyridin-4-yl)amino]-7-methyl-N-(3-methylbutyl)-1H-furo[3,2-e]benzimidazole-5-carboxamide], the inhibition at 1 µM came out at 89.2% and the inhibition at 10 µM came to 99.3%.
Consider `CC1(C)Cc2c(c(C(=O)Nc3ccccc3F)cc3nc(Nc4c(F)cccc4Cl)[nH]c23)O1` [Example-51, 2-[(2-Chloro-6-fluorophenyl)amino]-N-(2-fluorophenyl)-7,7-dimethyl-7,8-dihydro-1H-furo[3,2-e]benzimidazole-5-carboxamide], for which the inhibition at 1 µM was determined as 96.9%, the inhibition at 10 µM turned out to be 99.4% and the IC50 was less than 50 nM.
`CC(C)(C)CC(C)(C)NC(=O)c1cc2nc(Nc3c(F)cccc3Cl)[nH]c2c2c1OC(C)(C)C2` [Example-52, 2-[(2-Chloro-6-fluorophenyl)amino]-7,7-dimethyl-N-(2,4,4-trimethylpentan-2-yl)-7,8-dihydro-1H-furo[3,2-e]benzimidazole-5-carboxamide]: the inhibition at 1 µM came out at 94.3%, the inhibition at 10 µM amounted to 96% and the IC50 is less than 50 nM.
As to `CC1(C)Cc2c(c(C(=O)Nc3nc(C(C)(C)C)cs3)cc3nc(Nc4c(F)cccc4Cl)[nH]c23)O1` [Example-53, N-(4-tert-Butyl-1,3-thiazol-2-yl)-2-[(2-chloro-6-fluorophenyl)amino]-7,7-dimethyl-7,8-dihydro-1H-furo[3,2-e]benzimidazole-5-carboxamide], the inhibition at 1 µM turned out to be 47.2% and the inhibition at 10 µM stood at 85.4%.
For `Cc1csc(NC(=O)c2cc3nc(Nc4c(F)cccc4Cl)[nH]c3c3c2OC(C)(C)C3)n1` [Example-54, 2-[(2-Chloro-6-fluorophenyl)amino]-7,7-dimethyl-N-(4-methyl-1,3-thiazol-2-yl)-7,8-dihydro-1H-furo[3,2-e]benzimidazole-5-carboxamide] the same measures were 79.2% and 92.8%.
In the case of `Cc1nc(NC(=O)c2cc3nc(Nc4c(F)cccc4Cl)[nH]c3c3c2OC(C)(C)C3)sc1C` [Example-55, 2-[(2-Chloro-6-fluorophenyl)amino]-N-(4,5-dimethyl-1,3-thiazol-2-yl)-7,7-dimethyl-7,8-dihydro-1H-furo[3,2-e]benzimidazole-5-carboxamide], the inhibition at 1 µM is 91.8%, the inhibition at 10 µM was 94.2% and the IC50 was more than 100 nM.
On to `CC1(C)Cc2c(c(C(=O)Nc3cccc(F)c3)cc3nc(Nc4c(F)cccc4Cl)[nH]c23)O1` [Example-56, 2-[(2-Chloro-6-fluorophenyl)amino]-N-(3-fluorophenyl)-7,7-dimethyl-7,8-dihydro-1H-furo[3,2-e]benzimidazole-5-carboxamide], for which the inhibition at 1 µM stood at 96%, the inhibition at 10 µM was 98.2% and the IC50 is less than 50 nM.
Regarding `Cc1cc2c(o1)c(C(=O)NCC1CC1)cc1nc(Nc3c(Cl)cccc3Cl)[nH]c12` [Example-57, N-(Cyclopropylmethyl)-2-[(2,6-dichlorophenyl)amino]-7-methyl-1H-furo[3,2-e]benzimidazole-5-carboxamide], the inhibition at 1 µM amounted to 61.7% and the inhibition at 10 µM turned out to be 88.2%.
The like results for `CC1(C)Cc2c(c(C(=O)NN3CCCC3)cc3nc(Nc4c(Cl)cccc4Cl)[nH]c23)O1` [Example-58, 2-[(2,6-Dichlorophenyl)amino]-7,7-dimethyl-N-(pyrrolidin-1-yl)-7,8-dihydro-1H-furo[3,2-e]benzimidazole-5-carboxamide] were, in that order, 63.3% and 95.4%.
Consider `CC1(C)Cc2c(c(C(=O)Nc3ccc(C#N)cc3)cc3nc(Nc4c(Cl)cccc4Cl)[nH]c23)O1` [Example-59, N-(4-Cyanophenyl)-2-[(2,6-dichlorophenyl)amino]-7,7-dimethyl-7,8-dihydro-1H-furo[3,2-e]benzimidazole-5-carboxamide], for which the inhibition at 1 µM worked out at 96.8%, the inhibition at 10 µM was 98.1% and the IC50 was less than 50 nM.
In the case of `CN(C)CCNC(=O)c1cc2nc(Nc3c(Cl)cccc3Cl)[nH]c2c2c1OC(C)(C)C2` [Example-61, 2-[(2,6-Dichlorophenyl)amino]-N-[2-(dimethylamino)ethyl]-7,7-dimethyl-7,8-dihydro-1H-furo[3,2-e]benzimidazole-5-carboxamide], the inhibition at 1 µM was 6.5% and the inhibition at 10 µM amounted to 69.8%.
Regarding `CC1(C)Cc2c(c(C(=O)NCC(F)(F)F)cc3nc(Nc4c(Cl)cccc4Cl)[nH]c23)O1` [Example-62, 2-[(2,6-Dichlorophenyl)amino]-7,7-dimethyl-N-(2,2,2-trifluoroethyl)-7,8-dihydro-1H-furo[3,2-e]benzimidazole-5-carboxamide], the inhibition at 1 µM came to 96.8% and the inhibition at 10 µM is 94.3%.
For the compound `CC1(C)Cc2c(c(C(=O)NCCF)cc3nc(Nc4c(Cl)cccc4Cl)[nH]c23)O1` [Example-63, 2-[(2,6-Dichlorophenyl)amino]-N-(2-fluoroethyl)-7,7-dimethyl-7,8-dihydro-1H-furo[3,2-e]benzimidazole-5-carboxamide], the inhibition at 1 µM is 88%, the inhibition at 10 µM came out at 96.6% and the IC50 lay within 50 to 100 nM.
The like results for `Cc1cc2c(o1)c(C(=O)Nc1ccc(Br)cc1)cc1nc(Nc3c(Cl)cccc3Cl)[nH]c12` [Example-66, N-(4-Bromophenyl)-2-[(2,6-dichlorophenyl)amino]-7-methyl-1H-furo[3,2-e]benzimidazole-5-carboxamide] were, in that order, 96.4%, 95.2% and less than 50 nM.
`Cc1cc2c(o1)c(C(=O)Nc1ccccc1F)cc1nc(Nc3c(Cl)cccc3Cl)[nH]c12` [Example-67, 2-[(2,6-Dichlorophenyl)amino]-N-(2-fluorophenyl)-7-methyl-1H-furo[3,2-e]benzimidazole-5-carboxamide]: the inhibition at 1 µM was 92.8% and the inhibition at 10 µM was found to be 96.2%.
